Experimental findings from paper PMC10745497, “The Discovery of Indole-2-carboxylic Acid Derivatives as Novel HIV-1 Integrase Strand Transfer Inhibitors” (Molecules, 2023) are described below.

The target in one data set is T1, HIV-1 integrase (Human immunodeficiency virus type 1 group M subtype B, UniProt P04585).
T1 construct: purchased Abnova
As to the kind of experiment: Strand transfer inhibition assay (HIV-1 integrase assay kit). Type of data set: biochemical. To be noted: for IC50: average of three independent experiments; for Improvement of integrase inhibitory activity over the parent compound 3: ratio of IC50s versus compound 3. How it is done: The strand transfer assay was performed using an HIV-1 integrase assay kit (Abnova, Taipei, CN) according to the manufacturer’s instructions. Each sample was dissolved in DMSO and diluted to a final desired concentration (80, 40, 20, 10, 5 μM) with reaction buffer. Briefly, 100 μL of DS DNA solution was added to each well and incubated for 30 min at 37 °C, and the liquid was removed from the wells and washed 3 times with wash buffer. Then, 200 μL of blocking buffer was added to each well and incubated for 30 min in a 37 °C incubator. Followed by the aspiration of the liquid, each well was washed 3 times with reaction buffer, and 100 μL integrase enzyme solution was added to each well and incubated under similar conditions. Sequentially, 50 μL reaction buffer containing different concentrations of samples was added to each well and incubated for 5 min at room temperature. To each well was added 50 μL of TS DNA solution, and the reactions were mixed gently and incubated for 30 min at 37 °C. Then, each well was washed 3 times with wash solution, incubated with 100 μL HRP antibody and incubated for 30 min at 37 °C. After washing the plate under the same conditions, 100 μL TMB peroxidase substrate solution was added to each well and incubated at room temperature for 10 min. To terminate the reaction, 100 μL TMB stop solution was directly added to each well and the absorbance of the sample was determined using a plate reader (ELx800UV, Bio-Tek Instrument Inc., Winooski, VT, USA) at 450 nm.

A short description of data set [1]: Cytotoxicity assay (MTT) on MT-4 cells. Type of data set: cell-based, human. The note with it: human, five days, read-out: CC50, concentration that inhibits the proliferation of MT-4 cells by 50%. How it is done: (§1) The cytotoxicity of the title compounds was tested through MTT analysis on MT-4 cells. Cells were seeded in 96-well plates with a density of 50,000 cells/well and coincubated with serial diluted compounds (2.5, 5, 10, 20, 40, and 80 μM) at 37 °C for five days. MTT (Sigma) was then added to each well to a final concentration of 0.5 mg/mL and incubated for 2 h. Subsequently, the medium was decanted, and 150 μL of DMSO was added to each well. The absorbance was obtained using a microplate reader at 570 nm, and all measurements were conducted three times under the same condition. Finally, 50% cytotoxicity concentration (CC50) values were calculated by Graphpad Prism 8.

A further data set has as its system MT-4 cells. As to the kind of experiment: Cytotoxicity assay (MTT) on MT-4 cells. It is filed as cell-based, human. To be noted: five days, read-out: CC50, concentration that inhibits the proliferation of MT-4 cells by 50%. How it is done: as §1
The mark [2] stands for this setting: read-out: IC50, concentration required to inhibit the in vitro strand-transfer step of integrase by 50%.
Where [3] appears, read: IC50, concentration required to inhibit the in vitro strand-transfer step of integrase by 50%.

The structures appear in SMILES notation. Where two headings read alike, the source gives them in different places.

The melting point is the temperature of the solid-liquid transition. `O=C(NCc1ccc(F)cc1)c1coc(CN(Cc2ccc3c(c2)OCO3)Cc2ccc3c(c2)OCO3)n1` [Compound 8] registered a melting point of 171.5 to 176.8 °C. Further, the IC50 at HIV-1 integrase (setting [2]) was found to be 28.2 ± 1.07 µM.

`COc1ccc(Nc2ccc3c(COCc4ccc(C(F)(F)F)cc4)c(C(=O)OC(C)C)[nH]c3c2)cc1F` [Compound 16a, Isopropyl 6-((3-fluoro-4-methoxyphenyl)amino)-3-(((4-(trifluoromethyl)benzyl)oxy)methyl)-1H-indole-2-carboxylate]: the melting point was 142.3 to 145.6 °C. Moreover, the IC50 on HIV-1 integrase (setting [2]) was 3.47 ± 0.82 µM. Also, in data set [1], the CC50 at 5 days was more than 80 µM.

For the compound `CC(C)OC(=O)c1[nH]c2cc(Br)ccc2c1COCc1ccccc1F` [Compound 18, Isopropyl 6-bromo-3-(((2-fluorobenzyl)oxy)methyl)-1H-indole-2-carboxylate], the melting point was in the range of 154.6 to 158.9 °C. This compound also came in with an IC50 on HIV-1 integrase (setting [3]) of 1.92 ± 0.07 µM. Also, on HIV-1 integrase, the “Improvement of integrase inhibitory activity over the parent compound 3” value is on record as 6.5 fold. Moreover, in data set [1], the CC50 at 5 days was more than 29 µM. Further, the CC50 in the data set with MT-4 cells was found to be 45.3 ± 2.73 µM.

Take `CC(C)OC(=O)c1[nH]c2cc(Nc3ccc(F)cc3F)ccc2c1COCc1ccccc1F` [Compound 19b, Isopropyl 6-((2,4-difluorophenyl)amino)-3-(((2-fluorobenzyl)oxy)methyl)-1H-indole-2-carboxylate]: the melting point was 171.8 to 175.3 °C. Further, the IC50 on HIV-1 integrase (setting [2]) stood at 1.7 ± 0.15 µM. For the same compound, the CC50 at 5 days in data set [1] is more than 29 µM. Also, the CC50 with MT-4 cells was found to be 29.4 ± 1.76 µM.

Compound `Cc1c2c(=O)n(-c3nc4ccccc4s3)n(Cc3ccccc3)c2cc(=O)n1Cc1ccc2c(c1)OCO2` [Compound 10] gave a melting point of 139.9 to 143.6 °C. In addition, on HIV-1 integrase (setting [2]), the IC50 came out at 22.3 ± 0.43 µM.

As to `Cc1nnc(C(=O)NC(C)(C)c2nc(C(=O)NCc3ccc(F)cc3)c(O)c(=O)n2C)o1` [RAL, raltegravir, reference compound], in data set [1], the CC50 at 5 days is more than 80 µM.

As to `COc1ccc2[nH]c(C(=O)O)c(CC(=O)O)c2c1` [Compound 3], the melting point is 159.7 to 163.2 °C. The IC50 at HIV-1 integrase (setting [2]) was determined as 12.41 ± 0.07 µM.

`O=C(NC1CCCC1)c1ccc2c(=O)n(Cc3ccco3)c(=O)n(Cc3cccc([N+](=O)[O-])c3)c2c1` [Compound 6] had a melting point of 235.3 to 241.2 °C. Moreover, the IC50 on HIV-1 integrase (setting [2]) was determined as 22.6 ± 0.58 µM.

In turn, `Clc1ccc2c(c1)C(c1ccccc1Cl)=NCc1nnc(CSCc3ccccc3)n1-2` [Compound 5] came in with a melting point of 164.7 to 167.8 °C. For the same compound, the IC50 on HIV-1 integrase (setting [3]) is 47.4 ± 1.45 µM.

`COc1ccc(Nc2ccc3c(COCc4ccccc4F)c(C(=O)O)[nH]c3c2)cc1F` [Compound 20a, 6-((3-fluoro-4-methoxyphenyl)amino)-3-(((2-fluorobenzyl)oxy)methyl)-1H-indole-2-carboxylic acid] came in with a melting point of 169.9 to 173.7 °C. Also, the IC50 on HIV-1 integrase (setting [2]) stood at 0.13 ± 0.02 µM. Besides, the CC50 at 5 days in data set [1] was more than 80 µM.

Turning to `O=C(O)c1[nH]c2cc(Br)ccc2c1COCc1ccccc1F` [Compound 21, 6-bromo-3-(((2-fluorobenzyl)oxy)methyl)-1H-indole-2-carboxylic acid], the melting point lay in the range of 174.3 to 178 °C. The IC50 at HIV-1 integrase (setting [2]) was found to be 6.85 ± 0.66 µM. In addition, in data set [1], the CC50 at 5 days was more than 80 µM.

For `COc1ccc([C@H]2CC(=O)Nc3c(S(=O)(=O)c4ccccc4)csc32)cc1OC1CCCC1` [Compound 2], the melting point is 113 to 116.7 °C. In addition, the IC50 at HIV-1 integrase (setting [2]) worked out at 33 ± 1.29 µM.

In turn, `COc1cc(OC)c([C@H]2c3c(oc4ccc(Cl)cc4c3=O)C(=O)N2c2cc(C)on2)cc1OC` [Compound 4] returned a melting point of 271.4 to 279 °C. Besides, the IC50 on HIV-1 integrase (setting [2]) was 18.5 ± 1.06 µM.

In turn, `CC(C)OC(=O)c1[nH]c2cc(Nc3ccc(F)cc3F)ccc2c1COCc1ccc(C(F)(F)F)cc1` [Compound 16b, Isopropyl 6-((2,4-difluorophenyl)amino)-3-(((4-(trifluoromethyl)benzyl)oxy)methyl)-1H-indole-2-carboxylate] yielded a melting point of 149.7 to 152.5 °C. For the same compound, the IC50 at HIV-1 integrase (setting [2]) amounted to 1.06 ± 0.25 µM. The CC50 at 5 days in data set [1] is more than 80 µM.

For the compound `COc1ccc(Nc2ccc3c(COCc4ccc(C(F)(F)F)cc4)c(C(=O)O)[nH]c3c2)cc1F` [Compound 17a, 6-((3-fluoro-4-methoxyphenyl)amino)-3-(((4-(trifluoromethyl)benzyl)oxy)methyl) -1H-indole-2-carboxylic acid], the melting point was 134.8 to 136.3 °C. Also, the IC50 at HIV-1 integrase (setting [2]) was 0.93 ± 0.07 µM. The CC50 at 5 days in data set [1] was more than 80 µM.

In turn, `O=C(O)c1[nH]c2cc(Nc3ccc(F)cc3F)ccc2c1COCc1ccccc1F` [Compound 20b, 6-((2,4-difluorophenyl)amino)-3-(((2-fluorobenzyl)oxy)methyl)-1H-indole-2-carboxylic acid] gave a melting point of 178.5 to 181.8 °C. The IC50 at HIV-1 integrase (setting [2]) came to 0.64 ± 0.06 µM. In addition, the CC50 at 5 days in data set [1] is more than 80 µM.

On HIV-1 integrase (setting [3]), `CC(C)OC(=O)c1[nH]c2cc(Br)ccc2c1COCc1ccc(C(F)(F)F)cc1` [Compound 15, Isopropyl 6-bromo-3-(((4-(trifluoromethyl)benzyl)oxy)methyl)-1H-indole-2-carboxylate] came in with an IC50 of 2.34 ± 0.31 µM. At HIV-1 integrase, the “Improvement of integrase inhibitory activity over the parent compound 3” value turned out to be 5.3 fold. In data set [1], the CC50 at 5 days is more than 80 µM.

In turn, `COc1ccc(Nc2ccc3c(COCc4ccccc4F)c(C(=O)OC(C)C)[nH]c3c2)cc1F` [Compound 19a, Isopropyl 6-((3-fluoro-4-methoxyphenyl)amino)-3-(((2-fluorobenzyl)oxy)methyl)-1H-indole-2-carboxylate] had a melting point of 141.2 to 144.5 °C. Moreover, the IC50 on HIV-1 integrase (setting [2]) was found to be 1.05 ± 0.32 µM. In addition, the CC50 at 5 days in data set [1] was more than 29 µM. Besides, the CC50 in the data set with MT-4 cells is 37.6 ± 3.64 µM.

The compound `Cc1ccc(CNC(=O)CCS(=O)(=O)c2ccc3c(c2)CCN3C(=O)C2CC2)cc1` [Compound 1] gave a melting point of 173.4 to 175.3 °C. Further, the IC50 at HIV-1 integrase (setting [2]) was 39.1 ± 1.21 µM.

In turn, `O=C(O)c1[nH]c2cc(Nc3ccc(F)cc3F)ccc2c1COCc1ccc(C(F)(F)F)cc1` [Compound 17b, 6-((2,4-difluorophenyl)amino)-3-(((4-(trifluoromethyl)benzyl)oxy)methyl)-1H-indole-2-carboxylic acid] had a melting point of 157.3 to 160.5 °C. Besides, the IC50 at HIV-1 integrase (setting [2]) was 0.39 ± 0.09 µM. The CC50 at 5 days in data set [1] was more than 80 µM.

`O=c1c2cc(N3CCOCC3)ccc2nc(SCc2cc(=O)n3cc(Cl)ccc3n2)n1Cc1ccc2c(c1)OCO2` [Compound 9]: the melting point lay within 239 to 240.1 °C. Also, the IC50 on HIV-1 integrase (setting [2]) worked out at 32.8 ± 0.83 µM.

Compound `O=C(/C=C/c1ccc2c(c1)OCO2)C[C@@]1(O)C(=O)N(Cc2ccc(Cl)cc2)c2ccccc21` [Compound 7] showed a melting point of 147 to 148.2 °C. At HIV-1 integrase (setting [2]), the IC50 turned out to be 21.4 ± 0.26 µM.
